According to patent US10160831B2, “Astaxanthin based polymer and uses thereof” (SHENKAR COLLEGE OF ENGINEERING AND DESIGN, priority 2014, dated 2018):

How the values were obtained:
S. epidermidis 1457 = assay: Bacterial growth on coated 96 well plates, optical density over 24 h; assay type: cell-based; conditions: coated wells, 37° C., FIG. 12A
Protocol: The potential antibacterial properties of polymer based ATX samples were tested against Staphylococcus aureus MRSA252, S. aureus MSSA476 and S. epidermidis 1457. Using solvent casting method [J. Ghosh et al., Polymer, vol. 52, pp. […]], 96 well plates were coated with the following samples—ATX only, ATX+sebacic acid (SA), ATX+Hexadecanoic acid (HA) and ATX+sebacic acid+2% polyethylene glycol (PEG). Each sample coated 3 wells per row and the last row was left blank as a control.
3 ml Trypticase Soy Broth was inoculated with a colony from an overnight plate. Pre-cultures were grown at 37° C. with shaking to mid-exponential phase (2-3 h), and then used to inoculate fresh TSB to a starting OD600 of 0.01. 200 μl aliquots of this suspension were then inoculated into wells of one full row of the test plate. The plate was then incubated in a FLUOstar OPTIMA microplate reader at 37° C., and the optical density of each well measured every hour over a 24 h period. […]
Optical density was measured as absorbance at 570 nm using a FLUOstar OPTIMA microplate reader and biofilm positive defined as OD570 above 1. […] Data was analyzed using unpaired t-tests or one-way ANOVA, and the level of significance set at p<0.05. The ability of the bacteria to form a biofilm in the presence of the ATX samples was determined after culturing for 24 h using a semi-quantitative biofilm assay.

[1] = system: S. aureus and S. epidermidis isolates; assay: Semi-quantitative biofilm assay (crystal violet, OD570) after culturing for 24 h; assay type: cell-based; conditions: 24 h culture, OD570, FIG. 12B, p≤0.005
Protocol: 3 ml Trypticase Soy Broth was inoculated with a colony from an overnight plate. Pre-cultures were grown at 37° C. with shaking to mid-exponential phase (2-3 h), and then used to inoculate fresh TSB to a starting OD600 of 0.01. 200 μl aliquots of this suspension were then inoculated into wells of one full row of the test plate. The plate was then incubated in a FLUOstar OPTIMA microplate reader at 37° C., and the optical density of each well measured every hour over a 24 h period. After 24 h the suspension in each plate was removed. The plate itself was washed three times with phosphate buffered saline, pH 7.4 (PBS), air dried and stained with 150 μl crystal violet solution. The dye bound to any attached cells was solubilized by addition of 150 μl of 95% ethanol. Optical density was measured as absorbance at 570 nm using a FLUOstar OPTIMA microplate reader and biofilm positive defined as OD570 above 1. All S. aureus and S. epidermidis isolates were tested in triplicate in three independent experiments. Each plate also consisted of negative controls (wells without bacterial inoculation). Data was analyzed using unpaired t-tests or one-way ANOVA, and the level of significance set at p<0.05. The ability of the bacteria to form a biofilm in the presence of the ATX samples was determined after culturing for 24 h using a semi-quantitative biofilm assay.

## CC1=C(/C=C/C(C)=C/C=C/C(C)=C/C=C/C=C(C)/C=C/C=C(C)/C=C/C2=C(C)C(=O)[C@@H](O)CC2(C)C)C(C)(C)C[C@H](O)C1=O [ATX, 3,3′-dihydroxy-β,βcarotene-4,4′-dione]
S. epidermidis 1457
  effect on growth of the bacteria (optical density): significant effect on inhibiting the growth
[1]
  biofilm formation on coated surface vs control: inhibited the bacteria from forming biofilm
